In US9012397B2 (priority 2011, dated 2015):
Where two headings read alike, the source gives them in different places.

Key:
Type in all cases: in vivo, human
[1] = test system: burns
Experimental: (§1) The method of the invention has been carried out with respect to a number of skin disorders. The patients were treated with one of two peptides, each at a concentration of 50 μg/gr cream (unless otherwise indicated):
(§2) The cream was manufactured by Amiga LTD, Israel, and contains the following components:
1. A person was lightly burned on the back of the hand which touched a very hot object. ZEP4 was immediately applied to the burn site. • Results: the burn mark disappeared within 1 hour. No additional treatments were necessary.
2. A person was severely burned by boiling water on the palm of the hand. […] At the end of 2 weeks there was no sign of the burn, nor thereafter.
3. person two was lightly burned on their finger from boiling oil. […] No further treatments were necessary.
5. A person was burnt on their hand from an oven. […] The burn took on a light brown color.
6. 4 light burn cases, three from touching a hot surface and one from a chemical substance in a laboratory, were treated with ZEP3.
8. person three with irritated skin on the hand due to the rubbing of a watch band. The irritated skin came into contact with a chemical substance (used as a disinfectant). A severe redness developed similar to a burn, and a strong itching feeing. […] D. Oral Cavity

[2] = test system: psoriasis; conditions: person
Experimental: as §1, §2
1. A person suffered from intermittent psoriasis on their head over many years. […] The patient believes that the frequency of the outbreaks has been reduced.
2. A person suffered from psoriasis on the hands. […] The patient believes that a 20% improvement has occurred over 2 weeks.
3. A person suffered from psoriasis in the anus.
4. A person suffered from extensive psoriasis at various locations. ZEP3 (500 μg/gr cream) was applied to the sores as needed. • Results: the itching ceased within 12 hours.
5. A person suffered from chronic psoriasis on the elbow.
6. A person suffered from severe psoriasis at various locations. They regularly went for treatments to the Dead Sea in Israel.

[3] = test system: Herpes simplex
Experimental: as §1, §2
5. A person suffered for many years from Herpes simplex on the neck, with no relief from commercial remedies. ZEP3 was applied topically once a day to the lesions. • Results: relief in itching and skin rash within 10-20 min.
6. person two was diagnosed with Herpes simplex.
7. person one was diagnosed with Herpes simplex.
8. person four suffered from Herpes simplex from childhood.
9. A person suffered from Herpes simplex lesions on the lips and face. […] 1-2 applications cause the lesions to disappear.
10. A person suffered from Herpes simplex on the lips, mainly when under pressure. […] The blisters disappeared after 24 hours.
11. A person suffered from Herpes simplex on the lips. ZEP3 (500 μg/gr cream) was topically applied several times during the day on the wound. • Results: the person felt relief after several minutes. The itching and redness lessened immediately and the wound disappeared after 36 hours.
12. 7 subjects suffering from Herpes simplex were treated with ZEP3.
13. A person suffered from Herpes simplex lesions on the lips.
14. A person has a festering Herpes simplex lesion. Generally, 10 days are required for recuperation.
15. A person suffered intermittingly from Herpes simplex on the lips, with blisters.

[4] = test system: bee stings
Experimental: as §1, §2
3. A person was stung by a bee.
4. person four was stung by bees on both hands.
5. person three was stung by bees on both hands.

[5] = test system: flea bites
Experimental: as §1, §2
1. person two was bitten by fleas on various occasions, resulting in an itching sensation. […] The ointment was reapplied after 6 hours.
2. person one who is very sensitive to flea bites was bitten by fleas, resulting in an itching sensation. […] The ointment should be reapplied after 12 hours.

[6] = test system: Herpes zoster; conditions: person, lesions with skin edema on mid back; 50 μg/gr cream, applied 4-5 times
Experimental: as §1, §2
1. A person was diagnosed with Herpes zoster (shingles), which appeared as a painful, circumferential rash in the abdominal area. The patient had been on antibiotics, with no improvement.
2. A person was diagnosed with Herpes zoster, which appeared as painful lesions with skin edema on the mid back area, appearing several times a year. […] Decrease in the skin rash and the degree of the sore and swelling and a shortening of the time of recovery (healing).

[7] = test system: skin infection; conditions: person two, wrist infection, allergic reaction to watch band; 50 μg/gr cream several times a day
Experimental: as §1, §2
1. person two suffered from an infection on the wrist of the left hand, apparently an allergic reaction to a watch band. Large spots appeared around the wrist accompanied by redness.
2. person three suffered from an infection on the wrist of the left hand, apparently an allergic reaction to a watch band. Large spots appeared around the wrist accompanied by redness and itching.
3. 2 cases of infected skin wounds.

[8] = test system: itching; conditions: person
Experimental: as §1, §2
1. A person suffered from a strong itching sensation on the skin all over the body for no apparent reason.
2. A person suffered from a red rash and itching sensation on their breast. ZEP4 (500 μg/gr cream) was applied twice in a period of 2 hours. • Results: relief from itching within 10 minutes.
3. A person suffered from a strong itching sensation in the lower limbs which sometimes spread to the abdomen and back. […] I. Skin Infection

[9] = test system: mosquito bites; conditions: two males and four females, 30-57 years old; (500 μg/gr cream) as needed
Experimental: as §1, §2
8. males and four females suffered from mosquito bites. […]
9. 3 subjects suffering from mosquito bites were treated with ZEP3.

[10] = test system: radiation burns
Experimental: as §1, §2
4. A person with breast cancer received radiation treatment. The person suffered from radiation burns in a large skin area with blisters and open wounds. ZEP4 was applied directly to the wounds over a period of 12 days, 1-2 times per day. • Results: an immediate (˜1 minute) ease in the itching and burning sensation.
7. person two with breast cancer after mastectomy received radiation treatment. The person suffered from severe radiation burns.

[11] = test system: rash
Experimental: as §1, §2
1. A rash appeared on the wrist of person two, apparently as an allergic response to a watch band. Large red spots appeared around the wrist.
2. A rash appeared in the underarm area of a person, apparently due to sweat and rubbing of the bra strap. […] F. Psoriasis

[12] = person, severe boiling water burn on palm, 50 μg/gr cream immediately and every day for 2 weeks
[13] = person one, 50 μg/gr cream several times
[14] = person two, 50 μg/gr cream several times
[15] = person, lips, 50 μg/gr cream several times a day at onset of pricking sensation
[16] = red rash and itching on breast, 500 μg/gr cream twice in 2 hours
[17] = person, breast cancer radiation burns with blisters and open wounds, 50 μg/gr cream 1-2 times per day for 12 days

Q: How did the clinical outcome ([1]; person three, irritated skin on hand contacted a disinfectant, burn-like redness and itching, ZEP4 and ZEP3 each 500 μg/gr cream) turn out when pGLU-ASN-TRP-THR [ZEP4] was run?
A: immediate relief from the redness and itching

Q: What about the clinical outcome ([1]; person two, light burn on finger from boiling oil, 50 μg/gr cream applied immediately) of the same substance?
A: the swelling went down until it completely disappeared

Q: What about the clinical outcome ([1]; person, hand burnt from an oven, 50 μg/gr cream applied immediately) of the same substance?
A: the pain and redness immediately subsided

Q: And the “time until burn mark disappeared” value ([1]; person, light burn on back of hand from hot object, 50 μg/gr cream applied immediately)?
A: ≤ 1 h

Q: What about the clinical outcome [1, 12] of the same substance?
A: blisters began to appear and then shortly disappeared

Q: And the “time until no sign of the burn” value [1, 12]?
A: 2 weeks

Q: What about the “time until relief is felt” value ([2]; psoriasis in the anus, (500 μg/gr cream) once a day) of the same substance?
A: 4 days

Q: And the clinical outcome ([2]; psoriasis in the anus, (500 μg/gr cream) once a day, stopped several days, repeated for 4 days)?
A: the psoriasis disappeared

Q: What about the clinical outcome ([2]; psoriasis on hands, 500 μg/gr cream once a day) of the same substance?
A: feels relief; the skin is pleasant feeling and not itchy

Q: And the “improvement as believed by the patient” value ([2]; psoriasis on hands, 500 μg/gr cream once a day, over 2 weeks)?
A: 20%

Q: What about the clinical outcome ([2]; severe psoriasis at various locations, 500 μg/gr cream) of the same substance?
A: the itching ceased and the normal skin appearance returned

Q: And the “clinical outcome as compared to treatment with Zovirax®” value ([3]; person four, 50 μg/gr cream several times)?
A: Rapid drying of the lesion, shrinking of swelling and swift conclusion of the outbreak

Q: What about the clinical outcome [3, 13] of the same substance?
A: rapid drying of the lesion, as well as shortened scab formation

Q: What about the “time to reduction in the stinging/itching feeling” value [3, 13] of the same substance?
A: 10 to 20 min

Q: What about the clinical outcome [3, 14] of the same substance?
A: the development of the lesion was stopped, scab formation began and the stinging/itching feeling disappeared

Q: And the “scab formation as compared to treatment with Zovirax®” value [3, 14]?
A: shortened

Q: What about the clinical outcome [3, 15] of the same substance?
A: immediate reduction in the pricking sensation

Q: And the “time until blisters disappeared” value [3, 15]?
A: 24 h

Q: And the clinical outcome ([3]; person, lips, 200 μg/gr cream at onset of pricking sensation or lesions)?
A: immediate relief; the disease did not develop further

Q: What about the clinical outcome ([4]; person four, both hands stung, 1000 μg/gr cream once to one hand, about 10 minutes after sting) of the same substance?
A: the swelling shrunk and the redness decreased to an identical degree on each hand

Q: And the clinical outcome ([4]; person three, both hands stung, 1000 μg/gr cream once to one hand, about 10 minutes after sting)?
A: the swelling shrunk and the redness decreased to an identical degree on each hand

Q: What about the clinical outcome ([4]; person, 50 μg/gr cream, one application 24 hours after the sting) of the same substance?
A: immediate reduction in the redness, swelling and pain

Q: And the clinical outcome ([5]; person one very sensitive to flea bites, 50 μg/gr cream)?
A: almost immediate cessation of the itching sensation

Q: What about the clinical outcome ([5]; person two, 50 μg/gr cream several times to bite location) of the same substance?
A: immediate cessation of the itching sensation

Q: And the clinical outcome [6]?
A: reduced skin edema and an increase in the intervals between attacks. Decrease in the skin rash and the degree of the sore and swelling and a shortening of the time of recovery (healing)

Q: And the clinical outcome [7]?
A: a decrease in redness and the size of the spots

Q: And the clinical outcome [8, 16]?
A: The rash disappeared after several hours

Q: What about the “time to relief from itching” value [8, 16] of the same substance?
A: ≤ 10 min

Q: What about the clinical outcome ([8]; strong itching in lower limbs, 500 μg/gr cream as needed) of the same substance?
A: immediate relief

Q: What about the clinical outcome [9] of the same substance?
A: an immediate relief from the itching sensation was felt

Q: What about the clinical outcome ([10]; person two after mastectomy, severe radiation burns, 500 μg/gr cream several times per day) of the same substance?
A: felt immediate relief

Q: And the clinical outcome [10, 17]?
A: The therapeutic effect repeated itself after each treatment

Q: And the “time to ease in the itching and burning sensation” value [10, 17]?
A: ~1 min

Q: What about the clinical outcome ([11]; person two, wrist rash, allergic response to watch band, 50 μg/gr cream several times a day) of the same substance?
A: a reduction in the redness and in the diameter of the spots

Q: What about the clinical outcome ([11]; person, underarm rash, 50 μg/gr cream twice a day for three days) of the same substance?
A: the redness began to decrease shortly after treatment, and after a few days completely disappeared
